Consider nine compounds from paper PMC3894633 (Biochemistry, 2013).

The test system of assay [1] is Mtb. The note with it: ref [20]; cited from earlier work.
The target in assay [2] is T1, mycobacterial Lpd (mLpd) (Mycobacterium tuberculosis, UniProt P9WHH9).
T1 sequence (P9WHH9 1-464): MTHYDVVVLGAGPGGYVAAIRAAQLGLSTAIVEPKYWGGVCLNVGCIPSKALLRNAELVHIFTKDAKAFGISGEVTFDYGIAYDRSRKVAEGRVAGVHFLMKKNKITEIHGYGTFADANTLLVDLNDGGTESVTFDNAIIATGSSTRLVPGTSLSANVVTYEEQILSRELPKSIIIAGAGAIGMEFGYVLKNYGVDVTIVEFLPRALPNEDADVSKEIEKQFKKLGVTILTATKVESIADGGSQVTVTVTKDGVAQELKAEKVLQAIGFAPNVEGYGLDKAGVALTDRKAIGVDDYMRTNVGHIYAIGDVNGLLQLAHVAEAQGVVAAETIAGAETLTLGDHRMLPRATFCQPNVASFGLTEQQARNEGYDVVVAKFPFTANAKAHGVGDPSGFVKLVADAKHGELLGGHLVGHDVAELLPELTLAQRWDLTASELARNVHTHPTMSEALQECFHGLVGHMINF
The assay is classed as biochemical.

Assay [3] concerns M. tuberculosis ΔpanCDΔlysA. The assay is classed as cell-based. The following applies: for Growth inhibition of M. tuberculosis ΔpanCDΔlysA: 7 days in culture, tested up to 100 μM, inhibition only at 100 μM.
The test system of assay [4] is M. bovis BCG. The class given is cell-based.
For assay [5], the target named is T2, human Lpd (hLpd) (Homo sapiens, UniProt P09622).
T2 sequence (P09622 36-509): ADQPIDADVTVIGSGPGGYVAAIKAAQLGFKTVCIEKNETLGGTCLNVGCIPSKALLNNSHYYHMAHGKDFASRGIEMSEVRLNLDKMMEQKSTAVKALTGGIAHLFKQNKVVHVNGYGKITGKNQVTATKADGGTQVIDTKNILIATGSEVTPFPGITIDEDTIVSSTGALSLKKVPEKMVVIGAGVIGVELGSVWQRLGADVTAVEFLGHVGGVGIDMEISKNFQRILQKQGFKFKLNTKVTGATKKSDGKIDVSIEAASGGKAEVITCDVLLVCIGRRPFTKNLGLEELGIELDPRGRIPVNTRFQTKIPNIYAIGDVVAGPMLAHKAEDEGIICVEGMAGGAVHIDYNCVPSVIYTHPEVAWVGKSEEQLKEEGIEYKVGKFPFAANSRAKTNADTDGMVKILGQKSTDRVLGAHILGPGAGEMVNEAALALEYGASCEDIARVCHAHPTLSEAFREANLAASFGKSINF
The experiment in a line: Human Lpd inhibition, DTNB assay with 10 μM lipoamide. The assay is classed as biochemical. The following applies: highest concentration tested 100 μM.

Assay [6] relates to M. tuberculosis H37Rv. The assay is described as follows: Metabolic profiling of Mtb intracellular metabolites. The class given is cell-based, Mycobacterium tuberculosis. The following applies: Mtb exposed to 75 μM.

Where two headings read alike, the source gives them in different places.

On to `Nc1ccc(S(N)(=O)=O)cc1` [sulfanilamide], for which the “Growth inhibitory effect on Mtb” value in assay [1] is “little or no growth inhibitory effect”. For `CCN(Cc1ccccc1)C(=O)CN(C)S(=O)(=O)c1cc(Br)cnc1N` [E114-0951], the Loss of potency in assay [2] stood at 100 fold. Turning to `COC(=O)[C@H]1[C@H]2C[C@@H]3c4[nH]c5cc(OC)ccc5c4CCN3C[C@H]2C[C@@H](OC(=O)c2cc(OC)c(OC)c(OC)c2)[C@@H]1OC` [reserpine, reference compound], the “Growth inhibitory effect on Mtb on its own” value in assay [3] (25 μM) is recorded as “no growth inhibitory effect”. With `Cc1cc(NS(=O)(=O)c2ccc(N)cc2)no1` [Sulfamethoxazole], the “Growth inhibitory effect on Mtb” value in assay [1] is listed as “little or no growth inhibitory effect”. `COc1ccc(CCN(C)CCCC(C#N)(c2ccc(OC)c(OC)c2)C(C)C)cc1OC` (centres unmarked) [verapamil, reference compound]: the “Growth inhibitory effect on Mtb on its own” value in assay [3] (50 μM) is “no growth inhibitory effect”. For `CN(CC(=O)Nc1ccc(F)c(Cl)c1)S(=O)(=O)c1cc(Br)cnc1N` [SL418], in assay [4] (7 days in culture, tested up to 100 μM, inhibition only at 100 μM), the “Growth inhibition of M. bovis BCG” value is listed as “No growth inhibition”. For the same compound, the “Inhibition of hLpd” value in assay [5] was “did not inhibit”. In addition, the “Growth inhibition of M. tuberculosis ΔpanCDΔlysA” value in assay [3] was “No growth inhibition”.

As for `Nc1ncc(Br)cc1S(=O)(=O)NCCC(=O)Nc1cccc(Cl)c1` [K906-3123], the Loss of potency entry in assay [2] is listed as “even greater loss of potency”. On the same count and under the same terms, the result for `CN(Cc1ccccc1)C(=O)CN(C)S(=O)(=O)c1cc(Br)cnc1N` [E144-0828] reads 100 fold. As for `COc1ccc(NC(=O)CN(C)S(=O)(=O)c2cc(Br)cnc2N)cc1` [SL827, 2-(2-amino-5-bromo-N-methylpyridine-3-sulfonamido)-N-(4-methoxyphenyl)acetamide], in assay [6], the “Changes in alanine, valine and leucine levels” value was “no changes”. Moreover, in assay [4], the “Growth inhibition of M. bovis BCG” value was “No growth inhibition”. Also, the “Inhibition of hLpd” value in assay [5] is recorded as “did not inhibit”. Moreover, the “Growth inhibition of M. tuberculosis ΔpanCDΔlysA” value in assay [3] is listed as “No growth inhibition”.
